In ChEMBL document CHEMBL1201862, “PubChem BioAssay data set” (2004):
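48-hour exposure; five concentrations; linearly interpolated endpoints. At the GI50, growth is halved.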 Activity calls are given as the source filed them. Rule as the data show it: active = GI50 up to about 1.1 µM and inactive = higher.

Tests used:
Assay in all cases: NCI anticancer screen, dose series, 48 h
DLD-1 = test system: DLD-1
DMS-114 = test system: DMS-114
LXFL 529 = test system: LXFL 529
M19-MEL = test system: M19-MEL
RXF 631 = test system: RXF 631
DMS-273 = test system: DMS-273
KM-20L2 = test system: KM-20L2
XF498 = test system: XF498
HOP-18 = test system: HOP-18

Measured: GI50

COc1ccc(OC)c(NC(=O)C(=O)C(C(C)=O)c2nc3ccc(Cl)cc3nc2O)c1 (stereo not given)
inactive: DLD-1 > 50 µM | DMS-114 > 50 µM | LXFL 529 > 50 µM | M19-MEL > 50 µM | RXF 631 > 50 µM | DMS-273 > 50 µM | KM-20L2 > 50 µM | XF498 > 50 µM | HOP-18 45.2 µM

[N-]=[N+]=Nc1nnc(CCCCc2nnc(N=[N+]=[N-])o2)o1
inactive: DLD-1 > 100 µM | DMS-114 > 100 µM | LXFL 529 > 100 µM | M19-MEL > 100 µM | RXF 631 25.4 µM | KM-20L2 > 100 µM | XF498 > 100 µM | HOP-18 > 100 µM

CN/N=C(\C(=O)Nc1ccc(C(F)(F)F)cc1[N+](=O)[O-])C(c1cnc2ccc([N+](=O)[O-])cc2n1)[N+](=O)[O-] (stereo not given)
inactive: DLD-1 > 100 µM | DMS-114 10.4 µM | LXFL 529 21.8 µM | M19-MEL 10.9 µM

Cc1ccc(SC(C)/C=C/NNC2=NN=C(c3ccccc3)C(c3ccccc3)N2)cc1 (stereo not given)
inactive: DLD-1 27.4 µM | DMS-114 28.8 µM | LXFL 529 25.8 µM | M19-MEL 36.6 µM | DMS-273 32.5 µM | KM-20L2 14 µM | HOP-18 24.1 µM

COC(=O)/C(=N/NC(C)(C)C)C(C(=O)C=C(C)C)C(=O)C(=O)Nc1ccc(Cl)cc1C (stereo not given)
inactive: DMS-114 > 100 µM | LXFL 529 > 100 µM | M19-MEL > 100 µM | KM-20L2 > 100 µM | XF498 > 100 µM

O=C1NC(c2ccc(O)cc2)C2CCC1C2 (stereo not given)
inactive: DLD-1 > 100 µM | DMS-114 > 100 µM | LXFL 529 > 100 µM | M19-MEL > 100 µM | KM-20L2 > 100 µM | XF498 > 100 µM

COC(=O)c1cc(C(=O)OC)c(CC(=O)C(=O)NC2C3CC4CC(C3)CC2C4)nc1CC(=O)C(=O)NC1C2CC3CC(C2)CC1C3 (stereo not given)
inactive: DLD-1 > 100 µM | DMS-114 > 100 µM | LXFL 529 > 100 µM | M19-MEL > 100 µM | DMS-273 > 100 µM | KM-20L2 > 100 µM | HOP-18 > 100 µM

COC1(OC)CC2CCCCC2=C(C)N1S(=O)(=O)c1ccccc1 (stereo not given)
inactive: DLD-1 > 100 µM | LXFL 529 > 100 µM | M19-MEL > 100 µM | RXF 631 > 100 µM | DMS-273 > 100 µM | KM-20L2 > 100 µM | XF498 > 100 µM | HOP-18 > 100 µM

Nc1nc2c(ncn2Cc2ccccc2CCO)c(=O)[nH]1
inactive: DMS-114 > 100 µM | LXFL 529 > 100 µM | M19-MEL > 100 µM | RXF 631 > 100 µM | DMS-273 > 100 µM | KM-20L2 > 100 µM | XF498 > 100 µM

COC(=O)/C=C(C)/C=C/C1OC(C)OCC1O (stereo not given)
inactive: DLD-1 > 100 µM | DMS-114 > 100 µM | LXFL 529 > 100 µM | M19-MEL > 100 µM | DMS-273 > 100 µM | KM-20L2 > 100 µM

COc1ccc(C2Oc3c(c(O)cc4c3[C@H](c3ccc(O)cc3O)[C@H](O)C(c3ccc(O)c(O)c3)O4)C[C@@H]2O)cc1O (stereo not given in full)
inactive: DLD-1 > 100 µM | DMS-114 > 100 µM | LXFL 529 > 100 µM | M19-MEL > 100 µM | DMS-273 > 100 µM | KM-20L2 > 100 µM | HOP-18 > 100 µM

COC(=O)C(=O)C(C(C)=O)C(=O)NCc1ccc(OC)c(OC)c1 (stereo not given)
inactive: DLD-1 > 100 µM | DMS-114 > 100 µM | LXFL 529 > 100 µM | M19-MEL > 100 µM | RXF 631 > 100 µM | DMS-273 > 100 µM | KM-20L2 > 100 µM | XF498 > 100 µM | HOP-18 > 100 µM

Cc1cc2c(C)n(Cc3ccc(Cl)cc3Cl)nc2c(C#N)c1C
inactive: DLD-1 > 100 µM | DMS-114 36.4 µM | LXFL 529 59.6 µM | M19-MEL 73.8 µM | DMS-273 50.8 µM | KM-20L2 36.5 µM | XF498 15.8 µM | HOP-18 40.8 µM

O=C(Nc1ccc(Br)cc1)C(=O)C(C(=O)c1ccc(Cl)c(Cl)c1)C1OC(=O)c2ccccc21 (stereo not given)
inactive: DLD-1 18.3 µM | DMS-114 10.9 µM | LXFL 529 9.98 µM | M19-MEL 15 µM | DMS-273 19.1 µM | KM-20L2 33 µM | XF498 13.8 µM | HOP-18 14.4 µM

O=C1c2ccccc2N2OC3(N4CCOCC4)CCCC3C12c1ccccc1 (stereo not given)
inactive: DLD-1 > 100 µM | DMS-114 > 100 µM | LXFL 529 > 100 µM | M19-MEL > 100 µM | DMS-273 > 100 µM | KM-20L2 > 100 µM | XF498 > 100 µM | HOP-18 > 100 µM

CCN(CC)c1ccc(/N=N/c2ccc(-c3nc4cccn(C)c-4n3)cc2)cc1
inactive: DLD-1 4.83 µM | DMS-114 3.61 µM | LXFL 529 3.95 µM | M19-MEL 5.38 µM | RXF 631 3.41 µM | DMS-273 3.18 µM | KM-20L2 5.32 µM | XF498 14.1 µM | HOP-18 40.1 µM

CN(C)c1ccc(/C=C/c2cc[n+](C)c3ccccc23)cc1
inactive: DLD-1 2.68 µM | DMS-114 2.3 µM | LXFL 529 1.23 µM | M19-MEL 1.44 µM | DMS-273 2.39 µM | KM-20L2 3.04 µM | HOP-18 3.47 µM

Oc1nc2cc(Cl)ccc2nc1/C(=N\Nc1ccccc1)C(O)c1ccc(Cl)c(Cl)c1 (stereo not given)
inactive: DLD-1 > 100 µM | DMS-114 > 100 µM | LXFL 529 > 100 µM | M19-MEL > 100 µM | RXF 631 > 100 µM | DMS-273 > 100 µM | KM-20L2 > 100 µM
